Structures can show the parent of a compound that is named as a salt.
The compounds below were run against protein kinase C (assay: in vitro protein kinase C inhibition: protein kinase-induced incorporation of 32P from [γ-32P]ATP into histone). Details: concentration of test compound which reduces by 50% the protein kinase-induced incorporation of 32P from [γ-32P]ATP into histone.
Type: biochemical
Description: Research Comm. 19 (1979) 1218. The IC50 values in the following Table are that concentration of test compound which reduces by 50% the protein kinase-induced incorporation of ^32P from [γ-^32P]ATP into histone. Table

Row | IC50 | SMILES
1 | 30 nM | CN1C[C@@H]2Cc3c(C4=C(c5cn(C)c6ccccc56)C(=O)NC4=O)c4ccccc4n3C[C@@H]2C1 (relative stereo) [Example 6, cis-3-[2,3,3a,4,11,11a-hexahydro-2-methyl-1H-pyrrolo[3',4':4,5]pyrido-[1,2-a]indol-10-yl]-4-(1-methyl-3-indolyl)-1H-pyrrole-2,5-dione hydrochloride]
2 | 7 nM | CN1C[C@H]2Cc3c(C4=C(c5cn(C)c6ccccc56)C(=O)NC4=O)c4ccccc4n3C[C@@H]2C1 (relative stereo) [Example 14, trans-3-(2,3,3a,4,11,11a-hexahydro-2-methyl-1H-pyrrolo[3',4':4,5]pyrido[1,2-a]indol-10-yl)-4-(1-methyl-3-indolyl)-1H-pyrrole-2,5-dione hydrochloride]
3 | 40 nM | Cn1cc(C2=C(c3c4n(c5ccccc35)CCC3(CCNC3)C4)C(=O)NC2=O)c2ccccc21 (stereo not drawn) [Example 1, 3-[6,7,8,9-tetrahydrospiro[pyrido[1,2-a]indole-8,3'-pyrrolidin-10-yl]-4-(1-methyl-3-indolyl)-pyrrole-2,5-dione trifluoroacetate]
